Where a name gives a salt, the structure may show the parent alone.
What was measured:
[1] = test system: BT474 [human breast carcinoma, overexpressing HER2 (ErbB2)]; test: In vitro tumor cell proliferation assay (Cell Titer-Glo luminescent cell viability), BT474 cells; assay type: cell-based; conditions: BT-474, 72 h, 72 hours of drug exposure, Cell Titer-Glo readout, read-out: IC50, anti-proliferative activity in BT474 cells
[2] = test system: A431 cells [human epidermoid carcinoma, overexpressing HER1 (EGFR, ErbB1)]; test: In vitro tumor cell proliferation assay (Cell Titer-Glo luminescent cell viability), A431 cells; assay type: cell-based; conditions: A-431, 72 h, 72 hours of drug exposure, Cell Titer-Glo readout, read-out: IC50, anti-proliferative activity in A431 cells

OCC(O)C(O)c1ccc2c(c1)sc1ncnc(Nc3ccc(OCc4cccc(F)c4)c(Cl)c3)c12 (stereo not drawn) [Example 62, 1-[4-({3-chloro-4-[(3-fluorobenzyl)oxy]phenyl}amino)[1]benzothieno[2,3-d]pyrimidin-7-yl]propane-1,2,3-triol] was tested, and the IC50 [1] was no more than 0.5 µM and the IC50 [2] was no more than 5 µM.

Compound O=C(Cc1ccc2c(c1)sc1ncnc(Nc3ccc(OCc4cccc(F)c4)c(Cl)c3)c12)N1CCNCC1 [Example 31, N-{3-chloro-4-[(3-fluorobenzyl)oxy]phenyl}-7-(2-oxo-2-piperazin-1-ylethyl)[1] benzothieno[2,3-d]pyrimidin-4-amine hydrochloride] has an IC50 [1] of no more than 0.5 µM and an IC50 [2] of no more than 5 µM.

C=Cc1ccc2c(c1)sc1ncnc(Nc3ccc(OCc4ccccn4)c(Cl)c3)c12 [Example 72, N-[3-chloro-4-(pyridin-2-ylmethoxy)phenyl]-7-vinyl[1]benzothieno[2,3-d]pyrimidin-4-amine] showed an IC50 [1] of no more than 5 µM and an IC50 [2] of no more than 50 µM.

Work on Fc1cccc(COc2ccc(Nc3ncnc4sc5cc(CCn6ccnc6)ccc5c34)cc2Cl)c1 [Example 7, [3-chloro-4-(3-fluoro-benzyloxy)-phenyl]-[7-(2-imidazol-1-yl-ethyl)-benzo[4,5]thieno[2,3-d]pyrimidin-4-yl]-amine] yielded an IC50 [1] of no more than 5 µM and an IC50 [2] of no more than 50 µM.

For Fc1cccc(COc2ccc(Nc3ncnc4sc5cc(Br)ccc5c34)cc2Cl)c1 [Example 13, 7-bromo-N-{3-chloro-4-[(3-fluorobenzyl)oxy]phenyl}[1]benzothieno[2,3-d]pyrimidin-4-amine], the IC50 [1] was no more than 5 µM and the IC50 [2] was no more than 50 µM.

With O=C(O)CCc1ccc2c(c1)sc1ncnc(Nc3ccc(OCc4cccc(F)c4)c(Cl)c3)c12 [Example 65, 3-[4-({3-chloro-4-[(3-fluorobenzyl)oxy]phenyl}amino)[1]benzothieno[2,3-d]pyrimidin-7-yl]propanoic acid] the IC50 [1] was no more than 5 µM and the IC50 [2] was no more than 50 µM.

With OCC(CO)c1ccc2c(c1)sc1ncnc(Nc3ccc(OCc4cccc(F)c4)c(Cl)c3)c12 [Example 46, 2-{4-[3-Chloro-4-(3-fluoro-benzyloxy)-phenylamino]-benzo[4,5]thieno[2,3-]pyrimidin-7-yl}-propane-1,3-diol] the IC50 [1] was no more than 0.5 µM and the IC50 [2] was no more than 5 µM.

With CN1CCN(C(=O)/C=C/c2ccc3c(c2)sc2ncnc(Nc4ccc(OCc5cccc(F)c5)c(Cl)c4)c23)CC1 [Example 51, N-{3-chloro-4-[(3-fluorobenzyl)oxy]phenyl}-7-[(1E)-3-(4-methylpiperazin-1-yl)-3-oxoprop-1-en-1-yl][1]benzothieno [2,3-d]pyrimidin-4-amine] the IC50 [1] was no more than 5 µM and the IC50 [2] was no more than 5 µM.

In the case of OCCN(CCO)CCc1ccc2c(c1)sc1ncnc(Nc3ccc(OCc4cccc(F)c4)c(Cl)c3)c12 [Example 8, 2,2'-({2-[4-({3-chloro-4-[(3-fluorobenzyl)oxy]phenyl}amino)[1]benzothieno[2,3-d]pyrimidin-7-yl]ethyl}imino)diethanol], the IC50 [1] is reported as no more than 0.5 µM and the IC50 [2] is reported as no more than 5 µM.

Work on CS(=O)(=O)CCNC(=O)Cc1ccc2c(c1)sc1ncnc(Nc3ccc(OCc4ccccn4)c(Cl)c3)c12 [Example 102, 2-(4-{[3-chloro-4-(pyridin-2-ylmethoxy)phenyl]amino}[1]benzothieno[2,3-d]pyrimidin-7-yl)-N-[2-(methylsulfonyl)ethyl] acetamide] yielded an IC50 [1] of no more than 0.5 µM and an IC50 [2] of no more than 50 µM.

Compound O=C(Cc1ccc2c(c1)sc1ncnc(Nc3ccc(OCc4cscn4)c(Cl)c3)c12)NCCN1CCOCC1 [Example 140, 2-(4-{[3-chloro-4-(1,3-thiazol-4-ylmethoxy)phenyl]amino}[1]benzothieno[2,3-d]pyrimidin-7-yl)-N-(2-morpholin-4-ylethyl) acetamide] has an IC50 [1] of no more than 5 µM and an IC50 [2] of no more than 50 µM.

For OCCc1ccc2c(c1)sc1ncnc(Nc3ccc(OCc4cccc(F)c4)c(Cl)c3)c12 [Example 2, 2-[4-({3-chloro-4-[(3-fluorobenzyl)oxy]phenyl}amino)[1]benzothieno[2,3-d]pyrimidin-7-yl]ethanol], the IC50 [1] was no more than 5 µM and the IC50 [2] was no more than 5 µM.

Clc1cc(Nc2ncnc3sc4cc(CCBr)ccc4c23)ccc1OCc1ccccn1 [Example 83, 7-(2-bromoethyl)-N-[3-chloro-4-(pyridin-2-ylmethoxy)phenyl][1] benzothieno[2,3-d]pyrimidin-4-amine] was tested, and the IC50 [1] was no more than 0.5 µM and the IC50 [2] was no more than 5 µM.

For CN(C)CCNC(=O)/C=C/c1ccc2c(c1)sc1ncnc(Nc3ccc(OCc4cccc(F)c4)c(Cl)c3)c12 [Example 54, (2E)-3-[4-({3-chloro-4-[(3-fluorobenzyl)oxy]phenyl}amino) [1]benzothieno[2,3-d]pyrimidin-7-yl]-N-[2-(dimethylamino)ethyl]acrylamide], the IC50 [1] was no more than 5 µM and the IC50 [2] was no more than 50 µM.

In the case of O=C(Cc1ccc2c(c1)sc1ncnc(Nc3ccc(OCc4cccc(F)c4)c(Cl)c3)c12)NCCN1CCOCC1 [Example 30, 2-[4-({3-chloro-4-[(3-fluorobenzyl)oxy]phenyl}amino)[1]benzothieno[2,3-d]pyrimidin-7-yl]-N-(2-morpholin-4-ylethyl)acetamide], the IC50 [1] is reported as no more than 0.5 µM and the IC50 [2] is reported as no more than 5 µM.

Reference: patent US7750017B2, “Heterocycles” (Bayer Schering Pharma Aktiengesellschaft, priority 2004, dated 2010)
